Six molecules from patent US4822800A (Ortho Pharmaceutical Corporation, priority 1986, dated 1989) can be followed below.

The subject of experiment [1] is adult mongrel dogs. Description: renal vasodilating activity in anesthetized dogs. It is filed as in vivo, dog (adult mongrel). The note with it: for change in vivo at 0.34 mg/kg / change in vivo at 0.2 mg/kg / change in vivo at 0.14 mg/kg / change in vivo at 13.9 mg/kg / change in vivo at up to 13.9 mg/kg / change in vivo at 1.2 mg/kg: Canis lupus familiaris, renal vasodilator, relative to controls; for change in vivo at 0.34 mg/kg: dose 0.34 mg/kg intravenous; for change in vivo at 0.2 mg/kg: dose 0.2 mg/kg intravenous; for change in vivo at 0.14 mg/kg: dose 0.14 mg/kg intravenous; for change in vivo at 13.9 mg/kg / change in vivo at up to 13.9 mg/kg: dose 13.9 mg/kg intravenous; for renal vasodilating activity (in words): summary of Table 4; for change in vivo at 1.2 mg/kg: dose 1.2 mg/kg intravenous. In a few lines:
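In anesthetized mongrel dogs, compounds infused IV at rising (usually three-fold) rates, 5 min per dose, after a dopamine check (3 μg/kg/min, 10 min). Renal artery flow measured electromagnetically, pressure via carotid cannula; values are maximal % change from pre-drug control in RBF, RVR (MABP/flow), MABP and HR.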

Experiment [2] has as its target T1, Phosphodiesterase fraction III (Canis lupus familiaris, UniProt A0A8I3NYE0).
T1 construct: isolated as an isozyme from the crude canine heart homogenate; from tissue; host or cells: canine heart (crude homogenate, ion exchange chromatography, third and last PDE peak)
T1 sequence (A0A8I3NYE0 1-1135): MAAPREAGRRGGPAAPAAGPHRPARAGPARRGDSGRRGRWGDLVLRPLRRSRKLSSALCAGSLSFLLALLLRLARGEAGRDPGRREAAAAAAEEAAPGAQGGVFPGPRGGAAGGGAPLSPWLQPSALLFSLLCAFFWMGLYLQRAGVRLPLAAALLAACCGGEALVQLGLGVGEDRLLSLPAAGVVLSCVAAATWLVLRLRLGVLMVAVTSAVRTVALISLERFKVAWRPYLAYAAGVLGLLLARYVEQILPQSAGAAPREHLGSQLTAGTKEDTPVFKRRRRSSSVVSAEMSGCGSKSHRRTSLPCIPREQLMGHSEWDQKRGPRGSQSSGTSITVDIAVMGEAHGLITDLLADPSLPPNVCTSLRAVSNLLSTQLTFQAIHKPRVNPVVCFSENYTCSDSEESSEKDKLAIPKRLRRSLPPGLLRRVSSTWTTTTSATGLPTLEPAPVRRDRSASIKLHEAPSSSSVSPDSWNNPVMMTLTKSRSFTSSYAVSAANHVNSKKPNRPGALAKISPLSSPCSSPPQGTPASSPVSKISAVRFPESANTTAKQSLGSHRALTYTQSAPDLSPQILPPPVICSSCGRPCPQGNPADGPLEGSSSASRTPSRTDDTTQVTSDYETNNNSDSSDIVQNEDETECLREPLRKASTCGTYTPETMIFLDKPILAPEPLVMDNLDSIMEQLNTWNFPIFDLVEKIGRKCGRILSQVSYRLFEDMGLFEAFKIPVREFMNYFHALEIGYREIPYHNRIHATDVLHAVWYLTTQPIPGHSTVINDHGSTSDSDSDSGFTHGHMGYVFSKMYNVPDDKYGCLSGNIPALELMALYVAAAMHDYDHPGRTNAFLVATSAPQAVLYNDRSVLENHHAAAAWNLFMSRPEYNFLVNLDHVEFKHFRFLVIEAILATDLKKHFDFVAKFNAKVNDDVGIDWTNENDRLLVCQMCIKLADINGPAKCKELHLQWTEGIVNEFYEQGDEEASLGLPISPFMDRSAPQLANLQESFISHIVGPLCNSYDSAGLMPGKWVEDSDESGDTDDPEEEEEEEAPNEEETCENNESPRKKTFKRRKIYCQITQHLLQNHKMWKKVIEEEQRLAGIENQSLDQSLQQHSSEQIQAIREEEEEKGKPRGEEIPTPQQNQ
The experiment in a line: inhibition of phosphodiesterase fraction III activity. It is filed as biochemical, canine (heart). Particulars: for IC50: cyclic AMP 0.10-1.0 uM, pH 7.4, canine heart enzyme; for phosphodiesterase fraction III inhibition (in words): summary of Table 5.

Experiment [3] relates to adult mongrel dogs. Description: acute in vivo cardiotonic activity in anesthetized dogs. Also noted: species or system dog (adult mongrel). Particulars: for change in vivo at 1.875 mg/kg / change in vivo at 0.875 mg/kg / change in vivo at 0.025 mg/kg / change in vivo at 0.375 mg/kg: Canis lupus familiaris, cardiotonic, relative to controls; for change in vivo at 1.875 mg/kg: dose 1.875 mg/kg intravenous; for change in vivo at 0.875 mg/kg: dose 0.875 mg/kg intravenous; for cardiotonic activity (in words): summary of Table 4; for change in vivo at 0.025 mg/kg: dose 0.025 mg/kg intravenous; for change in vivo at 0.375 mg/kg: dose 0.375 mg/kg intravenous. In a few lines: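 Pentobarbital-anaesthetised, artificially respired mongrel dogs received compound by intravenous infusion or oral bolus. Recordings covered femoral arterial pressure, heart rate, LV dP/dt max (Millar catheter), aortic flow cardiac output, right-ventricular contractile force (strain gauge) and lead II ECG. Dopamine 10 μg/kg/min checked responsiveness; dose-related changes were expressed as % of pretreatment values and rated.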

[4] abbreviates: read-out: MABP (mean arterial blood pressure).
Where [5] appears, read: read-out: RBF (renal blood flow).
Setting [6] is: read-out: RVR (renal vascular resistance).
Setting [7] is: read-out: dP/dt (maximum change left ventricular pressure with time).

Entries after “also recorded” stand apart in the source; their conditions may differ. Where two headings read alike, the source gives them in different places.

Usually IC50 stands for the concentration needed to halve the response being measured. Low readings indicate inhibition by little substance, high ones a need for much substance. On to `COc1cc2c(C)nc(O)c(C3CCCC3)c2cc1OC` [AN], for which the change in vivo at 0.34 mg/kg in the experiment on adult mongrel dogs [1] (read-out: HR (heart rate)) was 1%; in the experiment with adult mongrel dogs [1] (setting [4]) it was -1%; in the experiment on adult mongrel dogs [1] (setting [5]) it was 10%; with adult mongrel dogs [1] (setting [6]) it was -10%. Moreover, the midpoint of inhibition in experiment [2], the IC50, lay at 128 µM. Besides, the change in vivo at 1.875 mg/kg in the experiment on adult mongrel dogs [3] (read-out: CF (cardiac force)) turned out to be 46%; in the experiment on adult mongrel dogs [3] (read-out: HR (heart rate)) it was 5%; in the experiment with adult mongrel dogs [3] (setting [4]) it was 3%; with adult mongrel dogs [3] (setting [7]), 22%.
Regarding `Br.COc1cc2c(C)nc(O)c(Br)c2cc1OC.O` [Compound AC, 4-Bromo-3-hydroxy-6,7-dimethoxy-1-methylisoquinoline Hydrobromide Monohydrate], the values for the change in vivo at 0.2 mg/kg in the experiment with adult mongrel dogs [1] (setting [5]) and in the experiment with adult mongrel dogs [1] (setting [6]) were 8% and -27%, respectively. Inhibition in experiment [2] was half-maximal at 10 µM (IC50). For the same molecule, the “phosphodiesterase fraction III inhibition (in words)” value in experiment [2] is given as “inhibit phosphodiesterase fraction III activity”. For the same molecule, the change in vivo at 0.875 mg/kg was 128% with adult mongrel dogs [3] (read-out: CF (cardiac force)), 26% with adult mongrel dogs [3] (read-out: HR (heart rate)), -40% in the experiment on adult mongrel dogs [3] (setting [4]) and 25% with adult mongrel dogs [3] (setting [7]).
As for `COc1cc2c(C)nc(O)c(Cl)c2cc1OC` [Compound AE, 4-Chloro-3-hydroxy-6,7-dimethoxy-1-methylisoquinoline], the change in vivo at 0.14 mg/kg with adult mongrel dogs [1] (setting [5]) was 12%; in the experiment on adult mongrel dogs [1] (setting [6]), -25%. Moreover, the midpoint of inhibition in experiment [2], the IC50, lay at 62 µM. Moreover, the change in vivo at 0.875 mg/kg in the experiment on adult mongrel dogs [3] (read-out: CF (cardiac force)) was 89%; in the experiment on adult mongrel dogs [3] (read-out: HR (heart rate)) it was 29%; with adult mongrel dogs [3] (setting [4]), 1%; in the experiment with adult mongrel dogs [3] (setting [7]) it was 88%.
Take `COC(=O)CCc1c(O)nc(C)c2cc(OC)c(OC)cc12` [Compound B, 4-(β-Carbomethoxyethyl)-3-hydroxy-6,7-dimethoxy-1-methylisoquinoline]: the change in vivo at 13.9 mg/kg in the experiment on adult mongrel dogs [1] (read-out: HR (heart rate)) was 12%; in the experiment on adult mongrel dogs [1] (setting [4]), -28%; in the experiment with adult mongrel dogs [1] (setting [5]) it was 15%. The change in vivo at up to 13.9 mg/kg in the experiment on adult mongrel dogs [1] (setting [6]) was -38%. Moreover, the “renal vasodilating activity (in words)” value in the experiment on adult mongrel dogs [1] is recorded as “renal vasodilating properties”. In experiment [2], this molecule had an IC50 of 40 µM. In addition, the “phosphodiesterase fraction III inhibition (in words)” value in experiment [2] is given as “inhibit phosphodiesterase fraction III activity; also recorded: phosphodiesterase fraction III inhibiting properties”. Also, the change in vivo at 0.875 mg/kg in the experiment on adult mongrel dogs [3] (read-out: CF (cardiac force)) is 140%; with adult mongrel dogs [3] (read-out: HR (heart rate)), 34%; in the experiment on adult mongrel dogs [3] (setting [4]), -12%; with adult mongrel dogs [3] (setting [7]), 78%. In the experiment with adult mongrel dogs [3], the “cardiotonic activity (in words)” value is recorded as “cardiotonic properties”.
With `CCc1c(O)nc(C)c2cc(OC)c(OC)cc12` [Compound Z, 4-ethyl-3-hydroxy-6,7-dimethoxy-1-methylisoquinoline], the figures for the change in vivo at 1.2 mg/kg in the experiment on adult mongrel dogs [1] (setting [5]) and in the experiment with adult mongrel dogs [1] (setting [6]) were 10% and -38%, respectively. Further, in the experiment with adult mongrel dogs [1], the “renal vasodilating activity (in words)” value is listed as “renal vasodilating properties”. This molecule also gave an IC50 in experiment [2] of 2.4 µM. Besides, in experiment [2], the “phosphodiesterase fraction III inhibition (in words)” value is on record as “inhibit phosphodiesterase fraction III activity; also recorded: phosphodiesterase fraction III inhibiting properties”. Moreover, the change in vivo at 0.025 mg/kg with adult mongrel dogs [3] (read-out: CF (cardiac force)) was 143%; in the experiment on adult mongrel dogs [3] (read-out: HR (heart rate)) it was 13%; with adult mongrel dogs [3] (setting [4]) it was -12%; in the experiment with adult mongrel dogs [3] (setting [7]), 98%. The “cardiotonic activity (in words)” value in the experiment on adult mongrel dogs [3] was “cardiotonic properties”.
For the molecule `CCCc1c(O)nc(C)c2cc(OC)c(OC)cc12` [Y], in the experiment on adult mongrel dogs [1] (setting [5]), the change in vivo at 13.9 mg/kg was 10%. In addition, the change in vivo at up to 13.9 mg/kg with adult mongrel dogs [1] (setting [6]) is -13%. Further, the “renal vasodilating activity (in words)” value in the experiment on adult mongrel dogs [1] is “renal vasodilating properties”. This molecule came in with an IC50 in experiment [2] of 5 µM. For the same molecule, the “phosphodiesterase fraction III inhibition (in words)” value in experiment [2] is listed as “inhibit phosphodiesterase fraction III activity; also recorded: phosphodiesterase fraction III inhibiting properties”. Further, the change in vivo at 0.375 mg/kg with adult mongrel dogs [3] (read-out: CF (cardiac force)) is 84%; in the experiment with adult mongrel dogs [3] (read-out: HR (heart rate)) it was 12%; with adult mongrel dogs [3] (setting [4]), -16%; in the experiment with adult mongrel dogs [3] (setting [7]), 44%. Further, the “cardiotonic activity (in words)” value with adult mongrel dogs [3] is recorded as “cardiotonic properties”.
